Columns and labels:
[1] = test system: wild-type mice (male, C57BL/6J mice); assay: Effect of KIT-13 on cerebral cortex PlsEtn (LC-MS/MS), wild-type mice; format: in vivo; settings: wild-type male C57BL/6J mice; KIT-13 given as in Example 2 for four weeks; control group taken as 1; FIG. 2
Procedure: For the KIT-13 administration group, KIT-13 was suspended in water by ultrasonication, and administered twice a week by drinking-water administration such that 20 ng/g body weight of KIT-13 was taken. In contrast, the control group was given only water in a similar manner. […]
(§1) The collected cerebral cortex was homogenized in a lysate (0.25 M sucrose, 10 mM HEPES-KOH (pH 7.4), 1 mM EDTA, and a protease inhibitor cocktail) to prepare a tissue lysate (25 µg protein). To the tissue lysate in a sample tube, 400 µL of MeOH and 100 µL of internal standard IS (C12 phosphatidylethanolamine (PE) and C12 phosphatidylcholine (PC)) dissolved in chloroform/methanol (C:M=1:2) were added and then mixed. The resulting mixture was transferred to a glass tube. Then, 200 µL of MeOH was added again to the sample tube, and after the same operation, the resulting mixture was transferred to the glass tube. To the sample, 1.2 mL of C/M (1:1) was added, mixed, sonicated for 5 minutes, and left to stand for 60 minutes. […] Thereafter, the sample was dried under nitrogen gas, dissolved in MeOH, and analyzed using liquid chromatography-mass spectrometry (LC-MS/MS). […]
Four-week-old wild-type mice (male, C57BL/6J mice, manufactured by the Jackson Laboratory Japan, Inc.) were divided into two groups: a control group and a KIT-13 administration group. […] PlsEtn in the collected cerebral cortex was quantified as with Example 2.

MeCP2-deficient mice = assay: Effect of KIT-13 on brain plasmalogen in cerebral cortex tissue lysate (LC-MS/MS), MeCP2-deficient mice; format: in vivo; settings: male MeCP2-deficient mice, 20 ng/g body weight twice a week by drinking-water administration for three weeks, vs control group given water
Procedure: Four-week-old male MeCP2-deficient mice lacking the MeCP2 gene on the X chromosome were used in the test. The MeCP2-deficient mice were divided into two groups: a control group (MeCP2-KO) and a KIT-13 administration group (KIT-13).
For the KIT-13 administration group, KIT-13 was suspended in water by ultrasonication, and administered twice a week by drinking-water administration such that 20 ng/g body weight of KIT-13 was taken. In contrast, the control group was given only water in a similar manner. KIT-13 was administered for three weeks until the mice were seven weeks old, and the cerebral cortex was collected from the brains of the mice.
as §1, with “tube.” for “tube. Then, 200 µL of MeOH was added again to the sample tube, and after the same operation, the resulting mixture was transferred to the glass tube. To the sample, 1.2 mL of C/M (1:1) was added, mixed, sonicated for 5 minutes, and left to stand for 60 minutes.”

CCCCCC=CCC=CCC=CCC=CCCCC(=O)OC(COCCCCCCCCCCCCCCCCCC)COP(=O)(O)OCCN [KIT-13, 2-(hydroxy((R)-2-(((5Z,8Z,11Z,14Z)-icosa-5,8,11,14-tetraenoyl)oxy)-3-(octadedecyloxy)propoxy)phosphoryl)oxy)ethane-1-ammonium 2,2,2-trifluoroacetate]
significantly increased: relative PlsEtn amount in the cerebral cortex [1] | concentration of PlsEtn in the tissue lysate (MeCP2-deficient mice; p < 0.05, FIG. 1A) | concentration of PlsEtn in which the sn-1 position is a saturated aliphatic hydrocarbon group having 18 carbon atoms (PlsEtn-C18:0), in the tissue lysate (MeCP2-deficient mice; p < 0.05, FIG. 1B)

— EP4623918A1, “AGENT FOR INCREASING BRAIN PLASMALOGEN, AND USE OF ORAL COMPOSITION AND COMPOUND FOR INCREASING BRAIN PLASMALOGEN” (Institute of Rheological Function of Food Co., Ltd., priority 2022, dated 2024)
